Key:
Assay type in all cases: physicochemical
[1] = Stability of crystalline form A of mesaconine by XRPD comparison (storage for 4 weeks; heating to 180° C.)
Experimental: After the samples of crystalline form A of mesaconine were placed at 25° C., 60% RH and 40° C., 75% RH for 4 weeks, it was performed XRPD test. The test result was compared with XRPD spectrum of comparative sample of crystalline form A of the mesaconine (XRPD spectrum of crystalline form A of mesaconine before stability test), and the results were shown in FIG. 4. Another sample of crystalline form A of mesaconine was heated to 180° C., and then was performed XRPD test. The test result was compared with XRPD spectrum of comparative sample of crystalline form A of the mesaconine (XRPD spectrum of crystalline form A of mesaconine before stability test), and the results were shown in FIG. 5.

[2] = Drug hygroscopicity test, Chinese Pharmacopoeia general rule 9103; conditions: for Percentage of weight increment(%): single batch
Experimental: The test was performed according to guiding principles for drug hygroscopicity test in Chinese Pharmacopoeia (general rule 9103, volume 4, 2015 edition).
According to the definition of hygroscopicity in Chinese Pharmacopoeia (general rule 9103, volume 4, 2015 edition): when the weight increment by hygroscopicity is less than 2% but not less than 0.2%, it has slight hygroscopicity. The weight increment of crystalline form A of mesaconine was 0.85% under the test conditions, which has slight hygroscopicity and good deliquescence resistance.

[3] = Solubility test, Chinese pharmacopoeia 2015 edition, general notice; conditions: solvent: water
Source text: The crystalline form A of mesaconine was sampled and tested according to the method of solubility test in the Chinese pharmacopoeia (2015 edition, general notice).

[4] = Influencing factors test (high temperature, high humidity, hard light irradiation), Chinese pharmacopoeia general rule 9001, analyzed by XRPD; conditions: open flat weighing bottle, 10 days
Experimental: In addition, the crystalline form A of mesaconine was sampled and tested for influencing factors according to the Guiding principle for stability test of raw materials of drugs and preparations (general rule 9001, the Chinese pharmacopoeia, 2015 edition).
High temperature test: the sample was placed in an open flat weighing bottle at 60° C. for 10 days. Then the sample was tested according to the key inspection items of stability test, and analyzed by X-ray powder diffraction.
High humidity test: the sample was placed in an open flat weighing bottle at 25° C. and 90% relative humidity for 10 days. Then the sample was tested according to the key inspection items of stability test, and analyzed by X-ray powder diffraction.
Hard light irradiation test: the sample was placed in an open flat weighing bottle for 10 days under the illuminance of 4500 lx. Then the sample was tested according to the key inspection items of stability test, and analyzed by X-ray powder diffraction.

[5] = Stability of crystalline form B of mesaconine by XRPD comparison after heating to 115° C.; conditions: heated to 115° C.
Experimental: Appropriate amount of crystalline form B of mesaconine was sampled and heated to 115° C., and then was performed XRPD test. The test result was compared with XRPD spectrum of comparative sample of crystalline form B of mesaconine (XRPD spectrum of crystalline form B of mesaconine before stability test), and the results were shown in FIG. 9.

Compound | Crystalline form stability (XRPD main diffraction peaks) ([1]; 25° C., 60% RH for 4 weeks) | Crystalline form stability (XRPD main diffraction peaks) ([1]; 40° C., 75% RH for 4 weeks) | Crystalline form stability (XRPD main diffraction peaks) ([1]; heated to 180° C.) | Hygroscopicity class ([2]; Chinese Pharmacopoeia definition) | Percentage of average weight increment(%) ([2]; hygroscopicity test, average of two batches) | Percentage of weight increment(%) ([2]; hygroscopicity test, listed as Sample 1) | Percentage of weight increment(%) ([2]; hygroscopicity test, listed as Sample 2) | Solubility [3] | Position and relative intensity of main XRPD diffraction peaks after high humidity test ([4]; 25° C., 90% relative humidity) | Position and relative intensity of main XRPD diffraction peaks after high temperature test ([4]; 60° C.) | Position and relative intensity of main XRPD diffraction peaks after hard light irradiation test ([4]; illuminance 4500 lx) | Crystalline form stability (XRPD main diffraction peaks) [5]
COC[C@]12CN(C)[C@@H]3[C@@H]4[C@H](OC)[C@H]1[C@@]3([C@@H](OC)C[C@H]2O)[C@@H]1C[C@@]2(O)[C@H](O)[C@@H]1[C@]4(O)[C@@H](O)[C@@H]2OC [crystalline form A of mesaconine, N-methyl-1α,6α,16β,18-tetramethoxyl-4-methyl-aconite-3α,8β,13β,14α,15α-pentol] | crystalline form did not change | crystalline form did not change | crystalline form did not change | slight hygroscopicity (when the weight increment by hygroscopicity is less than 2% but not less than 0.2%, it has slight hygroscopicity) | 0.85 | 0.85 | 0.84 | easily soluble (1 g of solute can be dissolved in 1~10 ml of solvent) | had not changed significantly | had not changed significantly | had not changed significantly | 
N-methyl-1α,6α,16β,18-tetramethoxyl-4-methyl-aconite-3α,8β,13β,14α,15α-pentol [crystalline form B of mesaconine] |  |  |  |  |  |  |  |  |  |  |  | crystalline form did not change

From patent publication US10941116B2, “Crystalline forms of mesaconine and preparation methods therefor” (Gooddoctor Pharmaceutical Group Co., Ltd., priority 2018, dated 2021)
